According to ChEMBL document CHEMBL3232845 (Bioorg Med Chem Lett, 2014):

Experiments:
[1] = biological target: Serine/threonine-protein kinase ULK2 (Homo sapiens) (UniProt Q8IYT8); assay: Inhibition of human ULK2 assessed as enzyme activity at 1 uM relative to control; set-up: scale not given: the % may be the effect or the level left
[2] = biological target: RAC-alpha serine/threonine-protein kinase (Homo sapiens) (UniProt P31749); assay: Inhibition of human AKT1 assessed as enzyme activity at 1 uM relative to control; set-up: scale not given: the % may be the effect or the level left
[3] = biological target: Ephrin type-A receptor 3 (Homo sapiens) (UniProt P29320); assay: Inhibition of human EphA3 assessed as enzyme activity at 1 uM relative to control; set-up: scale not given: the % may be the effect or the level left
[4] = biological target: Serine/threonine-protein kinase SIK1 (Homo sapiens) (UniProt P57059); assay: Inhibition of human SIK assessed as enzyme activity at 1 uM relative to control; set-up: scale not given: the % may be the effect or the level left
[5] = biological target: Tyrosine-protein kinase BTK (Homo sapiens) (UniProt Q06187); assay: Inhibition of human BTK assessed as enzyme activity at 1 uM relative to control; set-up: scale not given: the % may be the effect or the level left
[6] = biological target: Serine/threonine-protein kinase D1 (Homo sapiens) (UniProt Q15139); assay: Inhibition of human PKD1 assessed as enzyme activity at 1 uM relative to control; set-up: scale not given: the % may be the effect or the level left
[7] = biological target: Serine/threonine-protein kinase WNK3 (Homo sapiens) (UniProt Q9BYP7); assay: Inhibition of human WNK3 assessed as enzyme activity at 1 uM relative to control; set-up: scale not given: the % may be the effect or the level left
[8] = biological target: Serine/threonine-protein kinase Nek3 (Homo sapiens) (UniProt P51956); assay: Inhibition of human NEK3 assessed as enzyme activity at 1 uM relative to control; set-up: scale not given: the % may be the effect or the level left
[9] = biological target: Macrophage-stimulating protein receptor (Homo sapiens) (UniProt Q04912); assay: Inhibition of human Ron assessed as enzyme activity at 1 uM relative to control; set-up: scale not given: the % may be the effect or the level left
[10] = biological target: Receptor-interacting serine/threonine-protein kinase 2 (Homo sapiens) (UniProt O43353); assay: Inhibition of human RIPK2 assessed as enzyme activity at 1 uM relative to control; set-up: scale not given: the % may be the effect or the level left
[11] = biological target: Serine/threonine-protein kinase B-raf (Homo sapiens) (UniProt P15056); assay: Inhibition of B-Raf (unknown origin) at 1 uM
[12] = biological target: Protein kinase C beta type (Homo sapiens) (UniProt P05771); assay: Inhibition of human PKCbeta2 assessed as enzyme activity at 1 uM relative to control; set-up: scale not given: the % may be the effect or the level left
[13] = biological target: Glycogen synthase kinase-3 alpha (Homo sapiens) (UniProt P49840); assay: Inhibition of human GSK3alpha assessed as enzyme activity at 1 uM relative to control; set-up: scale not given: the % may be the effect or the level left
[14] = biological target: Fibroblast growth factor receptor 2 (Homo sapiens) (UniProt P21802); assay: Inhibition of human FGFR2 assessed as enzyme activity at 1 uM relative to control; set-up: scale not given: the % may be the effect or the level left
[15] = biological target: G protein-coupled receptor kinase 5 (Homo sapiens) (UniProt P34947); assay: Inhibition of human GRK5 assessed as enzyme activity at 1 uM relative to control; set-up: scale not given: the % may be the effect or the level left
[16] = biological target: Aurora kinase A (Homo sapiens) (UniProt O14965); assay: Inhibition of human AURKA assessed as enzyme activity at 1 uM relative to control; set-up: scale not given: the % may be the effect or the level left
[17] = biological target: Serine/threonine-protein kinase ULK3 (Homo sapiens) (UniProt Q6PHR2); assay: Inhibition of human ULK3 assessed as enzyme activity at 1 uM relative to control; set-up: scale not given: the % may be the effect or the level left
[18] = biological target: Protein kinase C delta type (Homo sapiens) (UniProt Q05655); assay: Inhibition of human PKCdelta assessed as enzyme activity at 1 uM relative to control; set-up: scale not given: the % may be the effect or the level left
[19] = biological target: Activated CDC42 kinase 1 (Homo sapiens) (UniProt Q07912); assay: Inhibition of human TNK2 assessed as enzyme activity at 1 uM relative to control; set-up: scale not given: the % may be the effect or the level left
[20] = biological target: Casein kinase I isoform delta (Homo sapiens) (UniProt P48730); assay: Inhibition of human CK1delta assessed as enzyme activity at 1 uM relative to control; set-up: scale not given: the % may be the effect or the level left
[21] = biological target: Vascular endothelial growth factor receptor 3 (Homo sapiens) (UniProt P35916); assay: Inhibition of human Flt4 assessed as enzyme activity at 1 uM relative to control; set-up: scale not given: the % may be the effect or the level left
[22] = biological target: Dual specificity protein kinase CLK2 (Homo sapiens) (UniProt P49760); assay: Inhibition of human CLK2 assessed as enzyme activity at 1 uM relative to control; set-up: scale not given: the % may be the effect or the level left
[23] = biological target: Vascular endothelial growth factor receptor 2 (Homo sapiens) (UniProt P35968); assay: Inhibition of human KDR assessed as enzyme activity at 1 uM relative to control; set-up: scale not given: the % may be the effect or the level left
[24] = biological target: Ephrin type-A receptor 7 (Homo sapiens) (UniProt Q15375); assay: Inhibition of human EphA7 assessed as enzyme activity at 1 uM relative to control; set-up: scale not given: the % may be the effect or the level left
[25] = biological target: Platelet-derived growth factor receptor beta (Homo sapiens) (UniProt P09619); assay: Inhibition of human PDGFRbeta assessed as enzyme activity at 1 uM relative to control; set-up: scale not given: the % may be the effect or the level left
[26] = biological target: Tyrosine-protein kinase Lyn (Homo sapiens) (UniProt P07948); assay: Inhibition of human Lyn assessed as enzyme activity at 1 uM relative to control; set-up: scale not given: the % may be the effect or the level left
[27] = biological target: Serine/threonine-protein kinase Nek11 (Homo sapiens) (UniProt Q8NG66); assay: Inhibition of human NEK11 assessed as enzyme activity at 1 uM relative to control; set-up: scale not given: the % may be the effect or the level left
[28] = biological target: Serine/threonine-protein kinase pim-2 (Homo sapiens) (UniProt Q9P1W9); assay: Inhibition of human Pim-2 assessed as enzyme activity at 1 uM relative to control; set-up: scale not given: the % may be the effect or the level left
[29] = biological target: Serine/threonine-protein kinase 10 (Homo sapiens) (UniProt O94804); assay: Inhibition of human LOK assessed as enzyme activity at 1 uM relative to control; set-up: scale not given: the % may be the effect or the level left
[30] = biological target: Ephrin type-B receptor 3 (Homo sapiens) (UniProt P54753); assay: Inhibition of human EphB3 assessed as enzyme activity at 1 uM relative to control; set-up: scale not given: the % may be the effect or the level left
[31] = biological target: Tyrosine-protein kinase Fgr (Homo sapiens) (UniProt P09769); assay: Inhibition of human Fgr assessed as enzyme activity at 1 uM relative to control; set-up: scale not given: the % may be the effect or the level left
[32] = biological target: Tyrosine-protein kinase Fes/Fps (Homo sapiens) (UniProt P07332); assay: Inhibition of human Fes assessed as enzyme activity at 1 uM relative to control; set-up: scale not given: the % may be the effect or the level left
[33] = organism: Sus scrofa; assay: Inhibition of […] pig Abl assessed as enzyme activity at 1 uM relative to control; set-up: scale not given: the % may be the effect or the level left
[34] = biological target: Serine/threonine-protein kinase Chk1 (Homo sapiens) (UniProt O14757); assay: Inhibition of human CHK1 assessed as enzyme activity at 1 uM relative to control; set-up: scale not given: the % may be the effect or the level left
[35] = tested on: Saccharomyces cerevisiae; assay: Inhibition of yeast CK1 assessed as enzyme activity at 1 uM relative to control; set-up: scale not given: the % may be the effect or the level left
[36] = biological target: RAC-beta serine/threonine-protein kinase (Homo sapiens) (UniProt P31751); assay: Inhibition of human AKT2 assessed as enzyme activity at 1 uM relative to control; set-up: scale not given: the % may be the effect or the level left
[37] = Antitumor activity against human LOX cells expressing B-Raf V600E mutant xenografted in nude mouse assessed as tumor growth inhibition at 30 mg/kg qd for 4 days measured on day 3; type: functional; details: read-out: TGI
[38] = biological target: Protein kinase C beta type (Homo sapiens) (UniProt P05771); assay: Inhibition of human PKCbeta1 assessed as enzyme activity at 1 uM relative to control; set-up: scale not given: the % may be the effect or the level left
[39] = biological target: CDK7/Cyclin H/MNAT1 (Homo sapiens) (UniProt P51946+P50613+P51948); assay: Inhibition of human CDK7/cyclinH/MAT1 assessed as enzyme activity at 1 uM relative to control; type: protein-complex assay; set-up: scale not given: the % may be the effect or the level left

Protein kinase C beta type (Homo sapiens), sequence (P05771 2-671 limits assumed): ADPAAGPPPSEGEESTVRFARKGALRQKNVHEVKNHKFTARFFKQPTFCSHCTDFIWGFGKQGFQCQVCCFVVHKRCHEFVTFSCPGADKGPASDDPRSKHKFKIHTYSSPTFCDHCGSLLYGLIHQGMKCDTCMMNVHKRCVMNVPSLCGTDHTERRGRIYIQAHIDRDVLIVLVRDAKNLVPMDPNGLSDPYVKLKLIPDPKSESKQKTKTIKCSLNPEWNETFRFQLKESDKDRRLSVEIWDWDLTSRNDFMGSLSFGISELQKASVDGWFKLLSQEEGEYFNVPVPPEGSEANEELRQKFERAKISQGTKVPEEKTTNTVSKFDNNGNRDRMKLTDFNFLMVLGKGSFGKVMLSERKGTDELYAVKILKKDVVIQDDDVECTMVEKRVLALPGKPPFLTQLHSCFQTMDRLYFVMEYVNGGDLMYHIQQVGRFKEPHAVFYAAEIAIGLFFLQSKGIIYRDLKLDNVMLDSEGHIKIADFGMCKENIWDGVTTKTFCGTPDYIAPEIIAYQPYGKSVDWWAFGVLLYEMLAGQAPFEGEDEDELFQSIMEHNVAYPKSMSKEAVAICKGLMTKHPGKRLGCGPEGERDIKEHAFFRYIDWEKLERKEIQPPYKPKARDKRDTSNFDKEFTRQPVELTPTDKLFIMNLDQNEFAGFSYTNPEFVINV
Aurora kinase A (Homo sapiens), sequence (O14965 whole entry): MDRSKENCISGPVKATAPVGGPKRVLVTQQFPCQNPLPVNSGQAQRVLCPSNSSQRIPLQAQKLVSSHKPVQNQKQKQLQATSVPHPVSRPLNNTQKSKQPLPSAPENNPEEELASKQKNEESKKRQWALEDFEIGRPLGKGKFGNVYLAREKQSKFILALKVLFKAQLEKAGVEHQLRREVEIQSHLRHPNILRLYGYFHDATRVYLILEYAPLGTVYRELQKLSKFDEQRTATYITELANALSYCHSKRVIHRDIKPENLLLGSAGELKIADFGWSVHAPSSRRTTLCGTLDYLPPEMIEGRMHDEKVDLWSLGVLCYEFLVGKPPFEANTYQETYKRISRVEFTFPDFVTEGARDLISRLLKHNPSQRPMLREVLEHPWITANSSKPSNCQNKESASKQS
RAC-beta serine/threonine-protein kinase (Homo sapiens), sequence (P31751 whole entry): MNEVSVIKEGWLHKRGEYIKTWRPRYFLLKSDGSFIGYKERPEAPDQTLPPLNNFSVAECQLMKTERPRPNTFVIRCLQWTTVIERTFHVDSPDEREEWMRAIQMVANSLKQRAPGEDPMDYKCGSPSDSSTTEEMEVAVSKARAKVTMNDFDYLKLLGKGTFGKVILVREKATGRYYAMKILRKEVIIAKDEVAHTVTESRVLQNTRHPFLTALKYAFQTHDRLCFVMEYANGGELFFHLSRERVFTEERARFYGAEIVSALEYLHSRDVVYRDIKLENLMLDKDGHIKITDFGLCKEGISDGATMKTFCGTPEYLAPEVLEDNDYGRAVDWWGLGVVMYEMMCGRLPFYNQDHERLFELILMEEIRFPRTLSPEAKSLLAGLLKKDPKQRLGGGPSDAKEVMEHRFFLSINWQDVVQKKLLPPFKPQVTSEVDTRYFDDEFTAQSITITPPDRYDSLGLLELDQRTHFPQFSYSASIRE
Tyrosine-protein kinase Lyn (Homo sapiens), sequence (P07948 2-512 limits assumed): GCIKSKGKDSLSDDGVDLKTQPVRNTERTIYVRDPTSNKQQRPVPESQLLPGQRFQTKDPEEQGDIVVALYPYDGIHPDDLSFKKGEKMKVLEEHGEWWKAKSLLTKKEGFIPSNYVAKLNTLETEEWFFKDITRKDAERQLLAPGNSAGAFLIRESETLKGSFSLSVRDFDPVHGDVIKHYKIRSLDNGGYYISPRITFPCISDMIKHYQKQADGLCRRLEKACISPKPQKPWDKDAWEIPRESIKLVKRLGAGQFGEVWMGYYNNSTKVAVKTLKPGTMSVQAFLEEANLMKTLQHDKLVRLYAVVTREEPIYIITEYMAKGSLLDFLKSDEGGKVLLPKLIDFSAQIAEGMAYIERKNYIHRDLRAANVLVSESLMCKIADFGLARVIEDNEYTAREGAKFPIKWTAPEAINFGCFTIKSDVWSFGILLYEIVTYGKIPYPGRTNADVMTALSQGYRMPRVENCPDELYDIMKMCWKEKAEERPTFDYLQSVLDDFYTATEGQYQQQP
Tyrosine-protein kinase Fes/Fps (Homo sapiens), sequence (P07332 whole entry): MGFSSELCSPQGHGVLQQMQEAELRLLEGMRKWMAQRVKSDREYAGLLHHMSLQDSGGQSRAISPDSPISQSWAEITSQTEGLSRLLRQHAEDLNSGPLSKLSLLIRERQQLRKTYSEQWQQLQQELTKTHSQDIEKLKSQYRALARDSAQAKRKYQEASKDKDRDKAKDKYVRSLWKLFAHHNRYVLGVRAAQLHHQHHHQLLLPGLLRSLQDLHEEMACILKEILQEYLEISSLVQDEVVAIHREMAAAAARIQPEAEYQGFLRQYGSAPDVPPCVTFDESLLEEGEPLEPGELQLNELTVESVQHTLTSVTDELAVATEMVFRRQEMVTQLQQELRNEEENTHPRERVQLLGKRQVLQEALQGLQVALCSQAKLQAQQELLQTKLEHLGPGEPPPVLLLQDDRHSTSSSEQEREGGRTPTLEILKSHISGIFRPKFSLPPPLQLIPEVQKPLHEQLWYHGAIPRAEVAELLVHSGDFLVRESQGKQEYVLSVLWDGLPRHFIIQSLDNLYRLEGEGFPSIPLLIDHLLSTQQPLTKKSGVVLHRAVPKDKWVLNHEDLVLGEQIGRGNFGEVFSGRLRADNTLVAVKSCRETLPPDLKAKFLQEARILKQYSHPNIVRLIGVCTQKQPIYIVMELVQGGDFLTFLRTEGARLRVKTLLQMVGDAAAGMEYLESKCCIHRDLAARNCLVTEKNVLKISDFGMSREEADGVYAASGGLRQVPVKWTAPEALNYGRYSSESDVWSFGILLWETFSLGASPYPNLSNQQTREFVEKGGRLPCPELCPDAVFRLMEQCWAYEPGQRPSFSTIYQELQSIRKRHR
Vascular endothelial growth factor receptor 3 (Homo sapiens), sequence (P35916 whole entry): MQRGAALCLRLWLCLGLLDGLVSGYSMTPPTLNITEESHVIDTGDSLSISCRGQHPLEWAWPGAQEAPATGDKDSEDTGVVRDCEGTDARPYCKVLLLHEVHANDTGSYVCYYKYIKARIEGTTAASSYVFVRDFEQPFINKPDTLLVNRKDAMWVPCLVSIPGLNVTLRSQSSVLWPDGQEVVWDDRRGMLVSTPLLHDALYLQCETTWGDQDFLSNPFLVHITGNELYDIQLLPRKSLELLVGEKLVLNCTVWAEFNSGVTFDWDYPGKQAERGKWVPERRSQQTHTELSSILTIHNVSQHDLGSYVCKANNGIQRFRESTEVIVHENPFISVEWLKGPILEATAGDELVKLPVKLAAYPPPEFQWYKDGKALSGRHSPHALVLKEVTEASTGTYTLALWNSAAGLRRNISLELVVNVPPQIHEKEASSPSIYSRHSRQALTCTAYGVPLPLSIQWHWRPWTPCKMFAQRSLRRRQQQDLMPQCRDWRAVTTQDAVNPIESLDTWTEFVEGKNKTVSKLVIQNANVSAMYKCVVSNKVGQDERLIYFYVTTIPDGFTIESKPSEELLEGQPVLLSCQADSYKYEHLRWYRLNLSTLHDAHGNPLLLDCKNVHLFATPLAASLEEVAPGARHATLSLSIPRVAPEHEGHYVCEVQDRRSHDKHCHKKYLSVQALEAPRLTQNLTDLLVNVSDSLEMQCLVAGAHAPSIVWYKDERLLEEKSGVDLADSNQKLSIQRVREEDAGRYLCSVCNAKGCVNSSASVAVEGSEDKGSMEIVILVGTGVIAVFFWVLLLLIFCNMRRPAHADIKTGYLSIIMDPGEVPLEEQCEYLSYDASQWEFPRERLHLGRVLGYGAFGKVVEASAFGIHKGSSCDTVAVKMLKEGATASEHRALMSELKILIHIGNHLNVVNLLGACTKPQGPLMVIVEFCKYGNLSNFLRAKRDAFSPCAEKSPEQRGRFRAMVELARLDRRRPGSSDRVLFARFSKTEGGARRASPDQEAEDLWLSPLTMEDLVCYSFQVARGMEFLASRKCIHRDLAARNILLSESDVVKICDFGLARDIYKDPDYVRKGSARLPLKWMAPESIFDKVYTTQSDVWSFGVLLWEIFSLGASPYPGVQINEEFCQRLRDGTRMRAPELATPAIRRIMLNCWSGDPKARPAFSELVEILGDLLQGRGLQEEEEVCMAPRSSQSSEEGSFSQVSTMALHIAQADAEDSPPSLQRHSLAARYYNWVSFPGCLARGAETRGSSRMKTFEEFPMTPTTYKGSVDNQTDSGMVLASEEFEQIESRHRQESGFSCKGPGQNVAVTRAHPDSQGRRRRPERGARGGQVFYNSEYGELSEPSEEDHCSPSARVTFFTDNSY
Serine/threonine-protein kinase SIK1 (Homo sapiens), sequence (P57059 whole entry): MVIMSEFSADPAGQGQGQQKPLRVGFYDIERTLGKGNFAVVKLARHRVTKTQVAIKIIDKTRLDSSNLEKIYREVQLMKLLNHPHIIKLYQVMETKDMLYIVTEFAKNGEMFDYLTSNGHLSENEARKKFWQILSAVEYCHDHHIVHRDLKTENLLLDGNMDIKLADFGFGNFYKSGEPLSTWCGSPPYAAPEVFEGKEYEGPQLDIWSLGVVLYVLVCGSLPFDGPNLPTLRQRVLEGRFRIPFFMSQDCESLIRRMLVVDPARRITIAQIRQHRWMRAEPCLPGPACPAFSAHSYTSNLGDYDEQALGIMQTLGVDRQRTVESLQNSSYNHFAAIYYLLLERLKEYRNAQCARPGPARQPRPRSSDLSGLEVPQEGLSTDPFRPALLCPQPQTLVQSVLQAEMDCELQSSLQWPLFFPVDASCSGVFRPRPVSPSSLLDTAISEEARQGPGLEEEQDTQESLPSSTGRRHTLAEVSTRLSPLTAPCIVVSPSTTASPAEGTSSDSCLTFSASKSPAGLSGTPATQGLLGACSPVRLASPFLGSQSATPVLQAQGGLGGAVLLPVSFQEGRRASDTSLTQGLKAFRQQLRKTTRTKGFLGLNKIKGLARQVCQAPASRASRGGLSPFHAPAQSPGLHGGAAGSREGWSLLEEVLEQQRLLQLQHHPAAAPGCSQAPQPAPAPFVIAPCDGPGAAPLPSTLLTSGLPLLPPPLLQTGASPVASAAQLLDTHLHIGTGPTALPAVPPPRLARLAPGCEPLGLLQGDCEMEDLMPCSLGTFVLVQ

## CCCS(=O)(=O)Nc1cccc(Nc2ccc3ncn(C)c(=O)c3c2)c1C#N
[1]
  Activity: 99.5%
[2]
  Activity: 108%
[3]
  Activity: 108%
[4]
  Activity: 143%
[5]
  Activity: 102%
[6]
  Activity: 127%
[7]
  Activity: 107%
[8]
  Activity: 112%
[9]
  Activity: 110%
[10]
  Activity: 98%
[11]
  inhibition: < 60%
[12]
  Activity: 100%
[13]
  Activity: 122%
[14]
  Activity: 99.5%
[15]
  Activity: 102%
[16]
  Activity: 97.5%
[17]
  Activity: 92%
[18]
  Activity: 100%
[19]
  Activity: 104%
[20]
  Activity: 95.5%
[21]
  Activity: 79.5%
[22]
  Activity: 110%
[23]
  Activity: 112%
[24]
  Activity: 99%
[25]
  Activity: 114%
[26]
  Activity: 98%
[27]
  Activity: 93.5%
[28]
  Activity: 108%
[29]
  Activity: 40.5%
[30]
  Activity: 91.5%
[31]
  Activity: 105%
[32]
  Activity: 92%
[33]
  Activity: 93%
[34]
  Activity: 106%
[35]
  Activity: 95.5%
[36]
  Activity: 154%
[37]
  inhibition in vivo at 30 mg/kg: 65%
[38]
  Activity: 87%
[39]
  Activity: 104%
